Assay results reported in patent US7879872B2, “Compositions comprising multiple bioactive agents, and methods of using the same” (Affinium Pharmaceuticals, Inc., priority 2003, dated 2011).

Columns and labels:
Test in all cases: checkerboard combination, clinical bacterial isolates (FIC)
Format in all cases: cell-based
[1] = system: S. pyogenes SPY_20061; details: S. pyogenes SPY_20061 (EryS)
Protocol: (§1) The combination experiments were performed and the results were interpreted using the checkerboard method as described in Eliopoulous, G. M., and R. C. Moellering, 1996, Antimicrobial combinations, p. 330-396, In V. Lorian (ed.), Antibiotics in laboratory medicine, 4th ed., The Williams & Wilkins Co., Baltimore, Md., in 96-well microtiter plates. Compound A was serially diluted along the x-axis of the test plate to a final volume of 50 μl, and compound B was serially diluted in a separate transfer plate. Dilutions in both plates were made in CAMHB (cation-adjusted Mueller Hinton broth) for Staphylococci and in CAMHB+5% sheep blood for Streptococci. Aliquots (50 μl) of Compound B were transferred to the test plate along the y-axis thereby achieving a checkerboard matrix of antimicrobial combinations (100 μl total volume) as in FIG. 4. The first column and last row (shaded in FIG. 4) contained only compound B or compound A, respectively. Plates were then inoculated with 10 μl of the test microorganism and MICs were determined according to NCCLS guidelines (see National Committee for Clinical Laboratory Standards, 2000, Methods for Dilution Antimicrobial Susceptibility Tests for Bacteria That Grow Aerobically—Fifth Edition, Approved Standard M7-A5, NCCLS, Wayne, Pa., USA.)
(§2) Data analysis was performed as follows and according to Eliopoulous, G. M., and R. C. Moellering, 1996, Antimicrobial combinations, p. 330-396, In V. Lorian (ed.), Antibiotics in laboratory medicine, 4th ed., The Williams & Wilkins Co., Baltimore, Md. First individual FIC values for each combination in a plate were calculated: FIC(Fractional Inhibitory Concentration)=FICA+FICB • FICA=MICA+B/MICA i.e. the MIC of combination of compound A+compound B divided by the MIC of compound A alone. • FICB=MICB+A/MICB i.e. the MIC of combination of compound B+compound A divided by the MIC of compound B alone.
(§3) FIC values were calculated only for combinations that enabled determination of a true MIC (e.g. not > or <=values). FIC indexes were then calculated as the average of individual FIC values for each combination plate.

[2] = system: S. aureus SA_29213; details: S. aureus SA_29213 (MSSA)
Protocol: as §1, §2, §3

[3] = system: S. aureus SA_A7080336; details: S. aureus SA_A7080336 (MRSA)
Protocol: as §1, §2, §3

[4] = system: H. influenzae HI_49247; details: compound G with Azithromycin
Protocol: as §1, §2, §3

[5] = system: S. pyogenes SPY_20015; details: compound G with Gatifloxacin
Protocol: as §1, §2, §3

[6] = system: S. aureus SA_A6250596; details: S. aureus SA_A6250596 (MRSA-MDR)
Protocol: as §1, §2, §3

[7] = system: S. epidermidis SE_A7100750; details: S. epidermidis SE_A7100750 (MRSE CipR)
Protocol: as §1, §2, §3

[8] = system: S. mitis SMI_116
Protocol: as §1, §2, §3

[9] = system: E. coli EC_25922
Protocol: as §1, §2, §3

[10] = system: E. faecalis EF_A6221420; details: E. faecalis EF_A6221420 (VRE)
Protocol: as §1, §2, §3

[11] = system: S. pneumoniae SP_22425; details: S. pneumoniae SP_22425 (PenR EryR ClinR)
Protocol: as §1, §2, §3

Cc1c(CN(C)C(=O)/C=C/c2cnc3c(c2)CCC(=O)N3)oc2ccccc12 [Compound G, (E)-N-methyl-N-(3-methylbenzofuran-2-ylmethyl)-3-(7-oxo-5,6,7,8-tetrahydro-1,8-naphthyridin-3-yl)acrylamide]
FIC ([1]; compound G with Ceftriaxone): <2
FIC ([1]; compound G with Gatifloxacin): <2
FIC ([2]; compound G with Azithromycin): 0.6
FIC ([2]; compound G with Ceftriaxone): <2
FIC ([2]; compound G with Cefuroxime): <2
FIC ([2]; compound G with Meropenem): 1
FIC ([2]; compound G with Penicillin): 0.7
FIC ([3]; compound G with Gatifloxacin): 0.6
FIC ([3]; compound G with Levofloxacin): 0.6
FIC [4]: <2
FIC [5]: <2
FIC ([6]; compound G with Azithromycin): <2
FIC ([6]; compound G with Ceftriaxone): <2
FIC ([6]; compound G with Cefuroxime): <2
FIC ([6]; compound G with Gatifloxacin): 1
FIC ([6]; compound G with Levofloxacin): 1
FIC ([6]; compound G with Meropenem): <2
FIC ([6]; compound G with Penicillin): <2
FIC ([7]; compound G with Ceftriaxone): 1
FIC ([7]; compound G with Gatifloxacin): <2
FIC ([7]; compound G with Meropenem): 0.6
FIC ([8]; compound G with Ceftriaxone): <2
FIC ([8]; compound G with Gatifloxacin): <2
FIC ([8]; compound G with Meropenem): <2
FIC ([8]; compound G with Penicillin): <2
FIC ([9]; compound G with Ceftriaxone): 0.7
FIC ([9]; compound G with Gatifloxacin): <2
FIC ([9]; compound G with Meropenem): 0.6
FIC ([10]; compound G with Ceftriaxone): <2
FIC ([10]; compound G with Gatifloxacin): <2
FIC ([10]; compound G with Levofloxacin): <2
FIC ([10]; compound G with Meropenem): <2
FIC ([11]; compound G with Ceftriaxone): <2
FIC ([11]; compound G with Cefuroxime): <2
FIC ([11]; compound G with Gatifloxacin): <2
FIC ([11]; compound G with Levofloxacin): <2
FIC ([11]; compound G with Meropenem): <2
